The record followed here is US7649012B2, “Compounds, pharmaceutical compositions containing same, and methods of use for same” (FASgen, Inc., priority 2002, dated 2010).

A short description of data set [1]: Weight loss screen in Balb/C mice. Format: in vivo. Particulars: for change in vivo at 60 mg/kg: ip, 60 mg/kg intraperitoneally. On the procedure: Balb/C mice (Jackson Labs) are utilized for the initial weight loss screening. Animals are housed in temperature and 12 hour day/night cycle rooms and fed mouse chow and water ad lib. Three mice are utilized for each compound tested with vehicle controls in triplicate per experiment. For the experiments, mice are housed separately for each compound tested three mice to a cage. […] Mice are observed and weighed daily; average weights and standard errors are computed with Excel (Microsoft). The experiment continues until treated animals reach their pretreatment weights. […]

For data set [2], the system named is MCF-7 human breast cancer cells. The experiment in a line: XTT cytotoxicity assay. Format: cell-based. The settings on record: MCF7, MCF-7, 72 hours, some cells marked (M). The method, then: The XTT assay is a non-radioactive alternative for the [^51 Cr] release cytotoxicity assay. XTT is a tetrazolium salt that is reduced to a formazan dye only by metabolically active, viable cells. The reduction of XTT is measured spectrophotometrically as OD490-OD650.
To measure the cytotoxicity of specific compounds against cancer cells, 9×10^3 MCF-7 human breast cancer cells, obtained from the American Type Culture Collection are plated per well in 96 well plates in DMEM medium with 10% fetal bovine serum, insulin, penicillin, and streptomycin. Following overnight culture at 37° C. and 5% CO2, the compounds to be tested, dissolved in DMSO, are added to the wells in 1 μl volume at the following concentrations: 80, 40, 20, 10, 5, 2.5, 1.25, and 0.625 μg/ml in triplicate. Additional concentrations are tested if required. 1 μl of DMSO is added to triplicate wells are the vehicle control. C75 is run at 40, 20, […], and 5 μg/ml in triplicate as positive controls. After 72 hours of incubation, cells are incubated for 4 hours with the XTT reagent as per manufacturer's instructions (Cell Proliferation Kit II (XTT) Roche). Plates are read at OD490 and OD650 on a Molecular Devices SpectraMax Plus Spectrophotometer. Three wells containing the XTT reagent without cells serve as the plate blank. XTT data are reported as OD490-OD650-Averages and standard error of the mean are computed using SOFTmax Pro software (Molecular Dynamics).
The IC50 for the compounds is defined as the concentration of drug leading to a 50% reduction in OD490-OD650 compared to controls. The OD490-OD650 are computed by the SOFTmax PRO software (Molecular Devices) for each compound concentration. IC50 is calculated by linear regression, plotting the FAS activity as percent of control versus drug concentrations. Linear regression, best-fit line, r^2, and 95% confidence intervals are determined using Prism Version 3.0 (Graph Pad Software).

Data set [3] has the same test system. The experiment in a line: Crystal violet cell growth assay. The data set is classed as cell-based. Particulars: MCF7, MCF-7, 72 hours, read-out: Cr. Violet(IC50). The method, then:
The crystal violet assay measure cell growth but not cytotoxicity. This assay employs crystal violet staining of fixed cells in 96-well plates with subsequent solubilization and measurement of OD490 on a spectrophotometer. The OD490 corresponds to cell growth per unit time measured. Cells are treated with the compounds of interest or vehicle controls and IC50 for each compound is computed.
To measure the cytotoxicity of specific compounds against cancer cells, 5×10^4 MCF-7 human breast cancer cells, obtained from the American Type Culture Collection are plated per well in 24 well plates in DMEM medium with 10% fetal bovine serum, penicillin, and streptomycin. Following overnight culture at 37° C. and 5% CO2, the compounds to be tested, dissolved in DMSO, are added to the wells in 1 μl volume at the following concentrations: 50, 40, 30, 20, and 10 μg/ml in triplicate. Additional concentrations are tested if required. 1 μl of DMSO is added to triplicate wells are the vehicle control. C75 is run at 10, and 5 μg/ml in triplicate as positive controls.
After 72 hours of incubation, cells are stained with 0.5 ml of Crystal Violet stain (0.5% in 25% methanol) in each well. After 10 minutes, wells are rinsed, air dried, and then solubilized with 0.5 ml 10% sodium dodecylsulfate with shaking for 2 hours.

In data set [4] the test system is Escherichia coli (ATCC # 25922). In words: Broth microdilution MIC. The data set is classed as cell-based. Particulars: for Ecoli/Tsoy(MIC): Trypticase Soy Broth; for MIC: Escherichia coli, ATCC25922, read-out: Ecoli/MH(MIC). On the procedure: (§1) A broth microdilution assay is used to assess the antimicrobial activity of the compounds. […] Microorganisms tested include Staphylococcus aureus (ATCC # 29213), Enterococcus faecalis (ATCC # 29212), Pseudomonas aeruginosa (ATCC # 27853), and Escherichia coli (ATCC # 25922). The assay is performed in two growth media, Mueller Hinton Broth and Trypticase Soy Broth. […] Colonies are suspended in sterile broth so that the turbidity matches the turbidity of a 0.5 McFarland standard. The inoculum is diluted 1:10 in sterile broth (Mueller Hinton or Trypticase soy) and 195 ul is dispensed per well of a 96-well plate. The compounds to be tested, dissolved in DMSO, are added to the wells in 5 ul volume at the following concentrations: 25, 12.5, 6.25, 3.125, 1.56 and 0.78 ug/ml in duplicate. Additional concentrations are tested if required. 5 ul of DMSO added to duplicate wells are the vehicle control. Serial dilutions of positive control compounds, vancomycin (E. faecalis and S. aureus) and tobramycin (E. coli and P. aeruginosa), are included in each run. After 24 hours of incubation at 37° C., plates are read at OD600 on a Molecular Devices SpectraMax Plus Spectrophotometer. Average OD600 values are computed using SOFTmax Pro Software (Molecular Devices) and MIC values are determined by linear regression analysis using Prism version 3.02 (Graph Pad Software, San Diego).
In general terms: In broth dilution the organism is exposed to a series of concentrations in liquid medium.

In data set [5] the test system is Staphylococcus aureus (ATCC # 29213). The experiment in a line: Broth microdilution MIC. Format: cell-based. The settings on record: Staphylococcus aureus, ATCC29213. The method, then: as §1
Data set [6] deals with Pseudomonas aeruginosa (ATCC # 27853). In words: Broth microdilution MIC. Format: cell-based. The settings on record: for PSAE/MH(MIC): Mueller Hinton Broth; for PSAE/Tsoy(MIC): Trypticase Soy Broth. On the procedure: as §1
In data set [7] the test system is Enterococcus faecalis (ATCC # 29212). In words: Broth microdilution MIC. Format: cell-based. Particulars: for MIC: Enterococcus faecalis, ATCC29212. The method, then: as §1
[8] abbreviates: Mus musculus, 48 h, day2, read-out: Weight Loss.
[9] abbreviates: Mueller Hinton Broth, read-out: SA/MH(MIC).
The mark [10] stands for this setting: Trypticase Soy Broth, read-out: SA/Tsoy(MIC).
[11] abbreviates: Mueller Hinton Broth, read-out: EF/MH(MIC).
[12] abbreviates: Trypticase Soy Broth, read-out: EF/Tsoy(MIC).
[13] abbreviates: Mus musculus, 72 h, day3, read-out: Weight Loss.

SMILES strings stand for the structures. ≈ marks a conversion by molar mass, not a printed value. Read-outs that look alike come from different tables or passages of the source.

On to `CCCCCCCCC1(C)SC(=O)C=C1OCC(=O)NNCc1ccc(Cl)cc1` (centres unmarked), for which the change in vivo at 60 mg/kg in data set [1] (setting [8]) was 1.4%. Further, the values for the 50% inhibitory concentration (IC50) in data set [2] and in data set [3] were 6.7 µg/mL (≈ 15.3 µM) and under 5 µg/mL, respectively.

With `CCCCCCC1(C)SC(=O)C=C1O` (centres unmarked), the “Ecoli/MH(MIC)” value in data set [4] (Mueller Hinton Broth) is “Neg”. Moreover, the “Ecoli/Tsoy(MIC)” value in data set [4] is given as “Neg”. The MIC in data set [5] (setting [9]) was 48 µg/mL (≈ 224 µM); in data set [5] (setting [10]) it was 31 µg/mL (≈ 145 µM); in data set [7] (setting [11]), 98 µg/mL (≈ 457 µM); in data set [7] (setting [12]) it was 43 µg/mL (≈ 201 µM). The “PSAE/MH(MIC)” value in data set [6] is given as “Neg”. Besides, the “PSAE/Tsoy(MIC)” value in data set [6] is “Neg”. The “Deaths in weight loss screen” value in data set [1] (60 mg/kg, day4, three mice) was 60 mg/kg: 3 of 3 dead(day4). The figures for the IC50 in data set [2] and in data set [3] were over 80 µg/mL and over 50 µg/mL, respectively.

As for `CCCCCCCC[C@@]1(C)SC(=O)C=C1OC(=O)OC` (racemic), the MIC in data set [4] (Mueller Hinton Broth) came out at 296 µg/mL (≈ 985 µM); in data set [5] (setting [9]), 64 µg/mL (≈ 213 µM); in data set [5] (setting [10]) it was 41 µg/mL (≈ 136 µM); in data set [7] (setting [11]) it was 73 µg/mL (≈ 243 µM); in data set [7] (setting [12]), 65 µg/mL (≈ 216 µM). The “Ecoli/Tsoy(MIC)” value in data set [4] was “Neg”. Further, the “PSAE/MH(MIC)” value in data set [6] is reported as “Neg”. In data set [6], the “PSAE/Tsoy(MIC)” value is “Neg”. Besides, in data set [1] (Mus musculus, 24 h, day1, read-out: Weight Loss), the change in vivo at 60 mg/kg was 7.65%. The 50% inhibitory concentration (IC50) (commonly the point on the concentration scale where inhibition reaches its midpoint) in data set [2] came out at 21.6 ± 0.2 µg/mL (≈ 71.9 µM); in data set [3], 41.4 ± 14.1 µg/mL (≈ 138 µM).

As to `CC/C=C/C=C/C1(C)SC(=O)C=C1O` (centres unmarked), the MIC stood at 225 µg/mL (≈ 1070 µM) in data set [4] (Mueller Hinton Broth), 202 µg/mL (≈ 961 µM) in data set [5] (setting [9]), 85 µg/mL (≈ 404 µM) in data set [5] (setting [10]) and 186 µg/mL (≈ 884 µM) in data set [7] (setting [11]). In addition, the “Ecoli/Tsoy(MIC)” value in data set [4] is recorded as “Neg”. Further, the “PSAE/MH(MIC)” value in data set [6] was “Neg”. Further, the “PSAE/Tsoy(MIC)” value in data set [6] is given as “Neg”. For the same compound, in data set [7] (Trypticase Soy Broth), the “EF/Tsoy(MIC)” value is “Neg”. The change in vivo at 60 mg/kg in data set [1] (Mus musculus, 120 h, day5, read-out: Weight Loss) amounted to 3.2%. Moreover, the IC50 is over 80 µg/mL in data set [2] and over 50 µg/mL in data set [3].

For `CCCCCCCCC1(C)SC(=O)C=C1OC(=O)OCC` (centres unmarked), the MIC in data set [5] (setting [9]) amounted to 45 µg/mL (≈ 143 µM); in data set [5] (setting [10]), 83 µg/mL (≈ 264 µM); in data set [7] (setting [11]), 86 µg/mL (≈ 273 µM); in data set [7] (setting [12]) it was 62 µg/mL (≈ 197 µM). The change in vivo at 30 mg/kg in data set [1] (Mus musculus, 96 h, 30 mg/kg, day4, read-out: Weight Loss) was 1.3%. The change in vivo at 60 mg/kg in data set [1] (setting [8]) stood at 6.9%. Besides, the concentration for half-maximal inhibition (IC50) came to 15.1 ± 2.6 µg/mL (≈ 48 µM) in data set [2] and 31.4 ± 5.7 µg/mL (≈ 99.9 µM) in data set [3].

For the compound `CCCCCCCCC1(C)SC(=O)C=C1OCc1ccccc1` (centres unmarked), the change in vivo at 60 mg/kg in data set [1] (setting [13]) was found to be 5.2%. In addition, the IC50 in data set [2] was 29.2 µg/mL (≈ 87.8 µM); in data set [3], 9.5 µg/mL (≈ 28.6 µM).

Turning to `C=CCN(C)C(=O)COC1=CC(=O)SC1(C)CCCCCCCC` (centres unmarked), the change in vivo at 60 mg/kg in data set [1] (setting [13]) was determined as 1.5%. Further, the results for the IC50 in data set [2] and in data set [3] were 9.2 ± 2.2 µg/mL (≈ 26 µM) and 9 µg/mL (≈ 25.5 µM), respectively.
